Data on 15 compounds can be found in patent publication US20080194616A1, “PYRIDOPYRIMIDINONE COMPOUNDS USEFUL IN TREATING SODIUM CHANNEL-MEDIATED DISEASES OR CONDITIONS” (Xenon Pharmaceuticals Inc., priority 2007, published 2008).

Each structure is given as a SMILES string. Structures can show the parent of a compound that is named as a salt.

This test concerns sodium channel. Put plainly: Guanidine Influx Assay (In Vitro Assay). It counts as cell-based, human or rat. Conditions: known cell line that expresses a sodium channel; read-out: IC50 Activity Level. The text has this:
This example describes an in vitro assay for testing and profiling test agents against human or rat sodium channels stably expressed in cells of either an endogenous or recombinant origin. The assay is also useful for determining the IC-50 of a sodium channel blocking compound. The assay is based on the guanidine flux assay described by Reddy, N. L., et al., J. Med. Chem. (1998), 41(17):3298-302.
The guanidine influx assay is a radiotracer flux assay used to determine ion flux activity of sodium channels in a high-throughput microplate-based format. The assay uses ^14C-guanidine hydrochloride in combination with various known sodium channel modulators, to assay the potency of test agents. Potency is determined by an IC-50 calculation. Selectivity is determined by comparing potency of the compound for the channel of interest to its potency against other sodium channels (also called ‘selectivity profiling’).
Each of the test agents is assayed against cells that express the channels of interest. Voltage gated sodium channels are either TTX sensitive or insensitive. This property is useful when evaluating the activities of a channel of interest when it resides in a mixed population with other sodium channels. The following Table 1 summarizes cell lines useful in screening for a certain channel activity in the presence or absence of TTX.
Cells expressing the channel of interest are grown according to the supplier or in the case of a recombinant cell in the presence of selective growth media such as G418 (Gibco/Invitrogen). The cells are disassociated from the culture dishes with an enzymatic solution (1×) Trypsin/EDTA (Gibco/Invitrogen) and analyzed for density and viability using haemocytometer (Neubauer). Disassociated cells are washed and resuspended in their culture media then plated into Scintiplates (Beckman Coulter Inc.) (approximately 100,000 cells/well) and incubated at 37° C./5% CO2. for 20-24 hours. After an extensive wash with Low sodium HEPES-buffered saline solution (LNHBSS) (150 mM Choline Chloride, […] (Sigma), 1 mM Calcium Chloride, 5 mM Potassium Chloride, 1 mM Magnesium Chloride, 10 mM Glucose) agents diluted with LNHBSS are added to each well. (Varying concentrations of test agent may be used). The activation/radiolabel mixture contains aconitine (Sigma), and ^14C-guanidine hydrochloride (ARC).
After loading the cells with test agent and activation/radiolabel mixture, the Scintiplates are incubated at ambient temperature. Following the incubation, the Scintplates are extensively washed with LNHBSS supplemented with guanidine (Sigma). The Scintiplates are dried and then counted using a Wallac MicroBeta TriLux (Perkin-Elmer Life Sciences). The ability of the test agent to block sodium channel activity is determined by comparing the amount of ^14C-guanidine present inside the cells expressing the different sodium channels.
IC-50 value of a test agent for a specific sodium channel may be determined using the above general method. IC-50 may be determined using a 3,8,10,12 or 16 point curve in duplicate or triplicate with a starting concentration of 1, 5 or 10 μM diluted serially with a final concentration reaching the sub-nanomolar, nanomolar and low micromolar ranges. Typically the mid-point concentration of test agent is set at 1 μM, and sequential concentrations of half dilutions greater or smaller are applied (e.g. 0.5 μM; […] and 0.25 μM; 10 μM and 0.125 μM; 20 μM etc.). The IC-50 curve is calculated using the 4 Parameter Logistic Model or Sigmoidal Dose-Response Model formula (fit=(A+((B−A)/(1+((C/x)̂D)))).
One may read the IC50 as the concentration that gives 50% inhibition. Turning to `CCCCc1nc2ccccn2c(=O)c1-c1ccc(NC2CCNC2)cc1` (stereo not drawn) [Example 7, 2-butyl-3-(4-(pyrrolidin-3-ylamino)phenyl)-4H-pyrido[1,2-a]pyrimidin-4-one hydrochloride], the IC50 is ≥ 10 µM.
Take `CCCCc1nc2ccccn2c(=O)c1-c1ccc(N[C@H]2CCNC2)cc1` [Example 7.1, (S)-2-butyl-3-{4-[pyrrolidin-3-ylamino]phenyl}-4H-pyrido[1,2-a]pyrimidin-4-one hydrochloride]: the IC50 is ≥ 10 µM.
For the compound `CCCCc1nc2ccccn2c(=O)c1-c1ccc(N[C@@H]2CCNC2)c(F)c1` [Example 7.2, (R)-2-butyl-3-{3-fluoro-4-[(pyrrolidin-3-ylamino]phenyl}-4H-pyrido[1,2-a]pyrimidin-4-one hydrochloride], the IC50 is ≥ 10 µM.
As for `CCCCc1nc2ccccn2c(=O)c1-c1ccc(N[C@@H]2CCNC2)cc1C` [Example 7.3, (R)-2-butyl-3-{2-methyl-4-[pyrrolidin-3-ylamino]phenyl}-4H-pyrido[1,2-a]pyrimidin-4-one hydrochloride], the IC50 was ≥ 10 µM.
In the case of `CCCCc1nc2ccccn2c(=O)c1-c1cccc(NC2CCNC2)c1` (stereo not drawn) [Example 7.4, 2-butyl-3-[3-(pyrrolidin-3-ylamino)phenyl]-4H-pyrido[1,2-a]pyrimidin-4-one hydrochloride] it was ≥ 10 µM; in that of `CC(C)c1nc2ccccn2c(=O)c1-c1ccc(NC2CCNC2)cc1` (stereo not drawn) [Example 7.5, 2-(1-methylethyl)-3-[4-(pyrrolidin-3-ylamino)phenyl]-4H-pyrido[1,2-a]pyrimidin-4-one hydrochloride], ≥ 10 µM; in that of `CC(C)CCc1nc2ccccn2c(=O)c1-c1ccc(N[C@@H]2CCNC2)cc1` [Example 7.6, (R)-2-isopentyl-3-(4-(pyrrolidin-3-ylamino)phenyl)-4H-pyrido[1,2-a]pyrimidin-4-one hydrochloride], ≥ 10 µM.
As for `O=c1c(-c2ccc(N[C@@H]3CCNC3)cc2)c(CCC2CC2)nc2ccccn12` [Example 7.7, (R)-2-(2-cyclopropylethyl)-3-(4-(pyrrolidin-3-ylamino)phenyl)-4H-pyrido[1,2-a]pyrimidin-4-one hydrochloride], the IC50 fell in the range of 0.1 to 1 µM.
Take `CCCNc1nc2ccccn2c(=O)c1-c1ccc(NC2CCNC2)cc1` (stereo not drawn) [Example 7.8, 2-(propylamino)-3-[4-(pyrrolidin-3-ylamino)phenyl]-4H-pyrido[1,2-a]pyrimidin-4-one hydrochloride]: the IC50 is ≥ 10 µM.
For the compound `CC(C)Nc1nc2ccccn2c(=O)c1-c1ccc(NC2CCNC2)cc1` (stereo not drawn) [Example 7.9, 2-[(1-methylethyl)amino]-3-[4-(pyrrolidin-3-ylamino)phenyl]-4H-pyrido[1,2-a]pyrimidin-4-one hydrochloride], the concentration for half-maximal inhibition (IC50) was ≥ 10 µM.
On to `CC(C)Nc1nc2ccccn2c(=O)c1-c1ccc(N[C@@H]2CCNC2)cc1` [Example 7.10, (R)-2-[(1-methylethyl)amino]-3-{4-[pyrrolidin-3-ylamino]phenyl}-4H-pyrido[1,2-a]pyrimidin-4-one hydrochloride], for which the IC50 was ≥ 10 µM.
As for `O=c1c(-c2ccc(N[C@@H]3CCNC3)cc2)c(N2CCCC2)nc2ccccn12` [Example 7.11, (R)-2-pyrrolidin-1-yl-3-{4-[pyrrolidin-3-ylamino]phenyl}-4H-pyrido[1,2-a]pyrimidin-4-one hydrogen chloride], the IC50 is ≥ 10 µM.
In the case of `CCCCc1nc2ccccn2c(=O)c1-c1ccc2c(c1)CCN2C1CCNC1` (stereo not drawn) [Example 7.12, 2-butyl-3-(1-(pyrrolidin-3-yl)indolin-5-yl)-4H-pyrido[1,2-a]pyrimidin-4-one hydrochloride], the IC50 is ≥ 10 µM.
Regarding `CCCCc1nc2ccccn2c(=O)c1-c1ccc(N2CCNCC2)nc1` [Example 7.13, 2-butyl-3-(6-piperazin-1-ylpyridin-3-yl)-4H-pyrido[1,2-a]pyrimidin-4-one hydrochloride], the IC50 was ≥ 10 µM.
The result for `COc1nc2ccccn2c(=O)c1-c1ccc(NC2CCNC2)cc1` (stereo not drawn) [Example 9, 2-methoxy-3-[4-(pyrrolidin-3-ylamino)phenyl]-4H-pyrido[1,2-a]pyrimidin-4-one trifluoroacetate] reads ≥ 10 µM.
